Test results from patent US20240245793A1, “PSD-95 INHIBITORS AND USES THEREOF” (priority 2021, published 2024).
Read-outs that look alike come from different tables or passages of the source.

Test system: HeLa cells stably expressing HaloGFP
Assay: Chloroalkane penetration assay (CAPA), membrane permeability and cellular uptake
Format: cell-based
Text: Since PSD-95 is located intracellularly, it is essential for any drug targeting PSD-95 to efficiently cross the cell membrane. To assess the cellular permeability and delivery to the cytosol of the compounds as defined herein, the cellular chloroalkane penetration assay (CAPA) may be used (Peraro et al. 2018). This assay takes advantage of a modified haloalkane dehalogenase designed to covalently bind chloroalkane (CA) molecules. A HeLa cell line expressing a fusion protein comprising a HaloTag, a green fluorescent protein (GFP) and a mitochondria-targeting peptide is used to report cytosolic delivery. The general format of the CAPA is a pulse-chase assay (Deprey & Kritzer, 2020). Cells expressing the HaloTag enzyme are incubated with CA-tagged peptides. When these CA-peptides penetrate the cell membrane and reach the cytosol, they will bind to and react with the HaloTag (pulse step). Following a washing step, the cells are incubated with a CA-tagged dye that quantitatively penetrates the cell membrane and reacts with remaining unreacted HaloTag sites (chase step). Flow cytometry is used to measure the fluorescence intensity of the cells and the measured fluorescence is inversely proportional to the amount of CA-peptides that reach the penetrated the cells and can thus be used to assess cytosolic delivery. The obtained data is commonly expressed as CP50 values, the concentration at which 50% cell penetration is observed. The CP50 value of a compound may be measured as described in example 4.
The membrane permeability of compounds 10 to 75 was determined in HeLa cells stably expressing HaloGFP exclusively located in the cytosol. Cells were seeded at a density of 40.000 cells/well one day prior to the experiment. After the growth media was aspirated and replaced by 100 μL of Opti-MEM, 25 μL of a prepared serial dilution of the ligand in Opti-MEM was added to the cells (constant DMSO concentration), and the plate was incubated for 4 h at 37° C. and 5% CO2. The contents of the wells were aspirated, and cells were washed with fresh Opti-MEM for 15 min. After aspiration of the wash, the cells were incubated with TAMRA-CA (5 μM) for 15 min. After aspiration of the chase solution, cells were washed with Opti-MEM for 30 min. Following removal of the wash, cells were trypsinized, resuspended in PBS (2% FBS), and analyzed using a benchtop flow cytometer. Using no ligand and no TAMRA-CA control well, the obtained fluorescence intensity data was normalized and plotted as dose-response curves. Reported CP50 values represent half-maximum red fluorescence which behaves inverse to cell penetration of the ligand.

[1] = CA-tagged ligands, 4 h at 37° C., L-TAT and L-Arg9, mean ± SEM (Table 10, FIG. 7)

Compound	CP50 (CA-tagged NPEG4-(IETDV)2 with various CPP-tags, 4 h at 37° C., mean ± SEM (Table 11, FIG. 8)) [µM]	CP50 [1] [µM]	CP50 [µM]
CC[C@H](C)[C@H](NC(=O)CCOCCOCCN(CCOCCOCCC(=O)N[C@H](C(=O)N[C@@H](CCC(=O)O)C(=O)N[C@H](C(=O)N[C@@H](CC(=O)O)C(=O)N[C@H](C(=O)O)C(C)C)[C@@H](C)O)[C@@H](C)CC)C(=O)[C@H](CCCNC(=N)N)NC(=O)[C@H](CCCNC(=N)N)NC(=O)[C@H](CCCNC(=N)N)NC(=O)[C@H](CCC(N)=O)NC(=O)[C@H](CCCNC(=N)N)NC(=O)[C@H](CCCNC(=N)N)NC(=O)[C@H](CCCCN)NC(=O)[C@H](CCCCN)NC(=O)[C@H](CCCNC(=N)N)NC(=O)CNC(=O)[C@H](Cc1ccc(O)cc1)NC(=O)CCC(=O)NCCOCCOCCCCCCCl)C(=O)N[C@@H](CCC(=O)O)C(=O)N[C@H](C(=O)N[C@@H](CC(=O)O)C(=O)N[C@H](C(=O)O)C(C)C)[C@@H](C)O [Compound 10]	55.1 ± 3.0	55.1 ± 3.0	
CC(C)C[C@H](NC(=O)[C@@H](NC(=O)[C@H](CCC(=O)O)NC(=O)[C@H](CCCCN)NC(=O)CCOCCOCCN(CCOCCOCCC(=O)N[C@@H](CCCCN)C(=O)N[C@@H](CCC(=O)O)C(=O)N[C@H](C(=O)N[C@@H](CC(C)C)C(=O)N[C@H](C(=O)O)C(C)C)[C@@H](C)O)C(=O)[C@H](CCCNC(=N)N)NC(=O)[C@H](CCCNC(=N)N)NC(=O)[C@H](CCCNC(=N)N)NC(=O)[C@H](CCC(N)=O)NC(=O)[C@H](CCCNC(=N)N)NC(=O)[C@H](CCCNC(=N)N)NC(=O)[C@H](CCCCN)NC(=O)[C@H](CCCCN)NC(=O)[C@H](CCCNC(=N)N)NC(=O)CNC(=O)[C@H](Cc1ccc(O)cc1)NC(=O)CCC(=O)NCCOCCOCCCCCCCl)[C@@H](C)O)C(=O)N[C@H](C(=O)O)C(C)C [Compound 12]		72.5 ± 4.4	
CC(C)[C@H](NC(=O)[C@@H](NC(=O)[C@@H](NC(=O)[C@H](CCC(=O)O)NC(=O)[C@H](CCCCN)NC(=O)CCOCCOCCN(CCOCCOCCC(=O)N[C@@H](CCCCN)C(=O)N[C@@H](CCC(=O)O)C(=O)N[C@H](C(=O)N[C@H](C(=O)N[C@H](C(=O)O)C(C)C)[C@@H](C)O)[C@@H](C)O)C(=O)[C@H](CCCNC(=N)N)NC(=O)[C@H](CCCNC(=N)N)NC(=O)[C@H](CCCNC(=N)N)NC(=O)[C@H](CCC(N)=O)NC(=O)[C@H](CCCNC(=N)N)NC(=O)[C@H](CCCNC(=N)N)NC(=O)[C@H](CCCCN)NC(=O)[C@H](CCCCN)NC(=O)[C@H](CCCNC(=N)N)NC(=O)CNC(=O)[C@H](Cc1ccc(O)cc1)NC(=O)CCC(=O)NCCOCCOCCCCCCCl)[C@@H](C)O)[C@@H](C)O)C(=O)O [Compound 14]		78.4 ± 3.9	
CC(C)[C@H](NC(=O)[C@@H](NC(=O)[C@@H](NC(=O)[C@H](CCC(=O)O)NC(=O)[C@H](CCCCN)NC(=O)CCOCCOCCN(CCOCCOCCC(=O)N[C@@H](CCCCN)C(=O)N[C@@H](CCC(=O)O)C(=O)N[C@H](C(=O)N[C@H](C(=O)N[C@H](C(=O)O)C(C)C)C(C)C)[C@@H](C)O)C(=O)[C@H](CCCNC(=N)N)NC(=O)[C@H](CCCNC(=N)N)NC(=O)[C@H](CCCNC(=N)N)NC(=O)[C@H](CCC(N)=O)NC(=O)[C@H](CCCNC(=N)N)NC(=O)[C@H](CCCNC(=N)N)NC(=O)[C@H](CCCCN)NC(=O)[C@H](CCCCN)NC(=O)[C@H](CCCNC(=N)N)NC(=O)CNC(=O)[C@H](Cc1ccc(O)cc1)NC(=O)CCC(=O)NCCOCCOCCCCCCCl)[C@@H](C)O)C(C)C)C(=O)O [Compound 16]		81.8 ± 1.2	
CC(C)[C@H](NC(=O)[C@H](CCCNC(=N)N)NC(=O)[C@@H](NC(=O)[C@H](CCC(=O)O)NC(=O)[C@H](CCCCN)NC(=O)CCOCCOCCN(CCOCCOCCC(=O)N[C@@H](CCCCN)C(=O)N[C@@H](CCC(=O)O)C(=O)N[C@H](C(=O)N[C@@H](CCCNC(=N)N)C(=O)N[C@H](C(=O)O)C(C)C)[C@@H](C)O)C(=O)[C@H](CCCNC(=N)N)NC(=O)[C@H](CCCNC(=N)N)NC(=O)[C@H](CCCNC(=N)N)NC(=O)[C@H](CCC(N)=O)NC(=O)[C@H](CCCNC(=N)N)NC(=O)[C@H](CCCNC(=N)N)NC(=O)[C@H](CCCCN)NC(=O)[C@H](CCCCN)NC(=O)[C@H](CCCNC(=N)N)NC(=O)CNC(=O)[C@H](Cc1ccc(O)cc1)NC(=O)CCC(=O)NCCOCCOCCCCCCCl)[C@@H](C)O)C(=O)O [Compound 18]		47.7 ± 1.0	
CC[C@H](C)[C@H](NC(=O)CCOCCOCCN(CCOCCOCCC(=O)N[C@H](C(=O)N[C@@H](CO)C(=O)N[C@H](C(=O)N[C@@H](CC(=O)O)C(=O)N[C@H](C(=O)O)C(C)C)[C@@H](C)O)[C@@H](C)CC)C(=O)[C@H](CCCNC(=N)N)NC(=O)[C@H](CCCNC(=N)N)NC(=O)[C@H](CCCNC(=N)N)NC(=O)[C@H](CCC(N)=O)NC(=O)[C@H](CCCNC(=N)N)NC(=O)[C@H](CCCNC(=N)N)NC(=O)[C@H](CCCCN)NC(=O)[C@H](CCCCN)NC(=O)[C@H](CCCNC(=N)N)NC(=O)CNC(=O)[C@H](Cc1ccc(O)cc1)NC(=O)CCC(=O)NCCOCCOCCCCCCCl)C(=O)N[C@@H](CO)C(=O)N[C@H](C(=O)N[C@@H](CC(=O)O)C(=O)N[C@H](C(=O)O)C(C)C)[C@@H](C)O [Compound 20]		41.9 ± 1.6	
CC(C)[C@H](NC(=O)[C@@H](NC(=O)[C@@H](NC(=O)[C@H](CCC(=O)O)NC(=O)[C@@H](NC(=O)CCOCCOCCN(CCOCCOCCC(=O)N[C@H](C(=O)N[C@@H](CCC(=O)O)C(=O)N[C@H](C(=O)N[C@H](C(=O)N[C@H](C(=O)O)C(C)C)C(C)C)[C@@H](C)O)C(C)C)C(=O)[C@H](CCCNC(=N)N)NC(=O)[C@H](CCCNC(=N)N)NC(=O)[C@H](CCCNC(=N)N)NC(=O)[C@H](CCC(N)=O)NC(=O)[C@H](CCCNC(=N)N)NC(=O)[C@H](CCCNC(=N)N)NC(=O)[C@H](CCCCN)NC(=O)[C@H](CCCCN)NC(=O)[C@H](CCCNC(=N)N)NC(=O)CNC(=O)[C@H](Cc1ccc(O)cc1)NC(=O)CCC(=O)NCCOCCOCCCCCCCl)C(C)C)[C@@H](C)O)C(C)C)C(=O)O [Compound 22]		86.1 ± 4.5	
CC(C)C[C@H](NC(=O)[C@@H](NC(=O)[C@H](CCC(=O)O)NC(=O)[C@H](CCCCN)NC(=O)CCOCCOCCN(CCOCCOCCC(=O)N[C@@H](CCCCN)C(=O)N[C@@H](CCC(=O)O)C(=O)N[C@H](C(=O)N[C@@H](CC(C)C)C(=O)N[C@H](C(=O)O)C(C)C)[C@@H](C)O)C(=O)[C@H](CCCNC(=N)N)NC(=O)[C@H](CCCNC(=N)N)NC(=O)[C@H](CCCNC(=N)N)NC(=O)[C@H](CCCNC(=N)N)NC(=O)[C@H](CCCNC(=N)N)NC(=O)[C@H](CCCNC(=N)N)NC(=O)[C@H](CCCNC(=N)N)NC(=O)[C@H](CCCNC(=N)N)NC(=O)[C@H](CCCNC(=N)N)NC(=O)CCC(=O)NCCOCCOCCCCCCCl)[C@@H](C)O)C(=O)N[C@H](C(=O)O)C(C)C [Compound 24]			0.78 ± 0.05
CC(C)[C@H](NC(=O)[C@@H](NC(=O)[C@@H](NC(=O)[C@H](CCC(=O)O)NC(=O)[C@H](CCCCN)NC(=O)CCOCCOCCN(CCOCCOCCC(=O)N[C@@H](CCCCN)C(=O)N[C@@H](CCC(=O)O)C(=O)N[C@H](C(=O)N[C@H](C(=O)N[C@H](C(=O)O)C(C)C)[C@@H](C)O)[C@@H](C)O)C(=O)[C@H](CCCNC(=N)N)NC(=O)[C@H](CCCNC(=N)N)NC(=O)[C@H](CCCNC(=N)N)NC(=O)[C@H](CCCNC(=N)N)NC(=O)[C@H](CCCNC(=N)N)NC(=O)[C@H](CCCNC(=N)N)NC(=O)[C@H](CCCNC(=N)N)NC(=O)[C@H](CCCNC(=N)N)NC(=O)[C@H](CCCNC(=N)N)NC(=O)CCC(=O)NCCOCCOCCCCCCCl)[C@@H](C)O)[C@@H](C)O)C(=O)O [Compound 26]			0.74 ± 0.09
CC(C)[C@H](NC(=O)[C@@H](NC(=O)[C@@H](NC(=O)[C@H](CCC(=O)O)NC(=O)[C@H](CCCCN)NC(=O)CCOCCOCCN(CCOCCOCCC(=O)N[C@@H](CCCCN)C(=O)N[C@@H](CCC(=O)O)C(=O)N[C@H](C(=O)N[C@H](C(=O)N[C@H](C(=O)O)C(C)C)C(C)C)[C@@H](C)O)C(=O)[C@H](CCCNC(=N)N)NC(=O)[C@H](CCCNC(=N)N)NC(=O)[C@H](CCCNC(=N)N)NC(=O)[C@H](CCCNC(=N)N)NC(=O)[C@H](CCCNC(=N)N)NC(=O)[C@H](CCCNC(=N)N)NC(=O)[C@H](CCCNC(=N)N)NC(=O)[C@H](CCCNC(=N)N)NC(=O)[C@H](CCCNC(=N)N)NC(=O)CCC(=O)NCCOCCOCCCCCCCl)[C@@H](C)O)C(C)C)C(=O)O [Compound 28]			0.79 ± 0.06
